Test results reported in publication PMC11277489, “Novel Piperazine Derivatives of Vindoline as Anticancer Agents” (International Journal of Molecular Sciences, 2024).

What was measured:
[1] = test system: CCRF-CEM; assay: NCI60 one-dose screen (10 μM), Leukemia; assay type: cell-based; conditions: Homo sapiens, 10 μM, Leukemia, read-out: Growth percent rate
[2] = test system: HL-60(TB); assay: NCI60 one-dose screen (10 μM), Leukemia; assay type: cell-based; conditions: Homo sapiens; 10 μM; HL-60(TB), Leukemia; read-out: Growth percent rate
[3] = test system: K-562; assay: NCI60 one-dose screen (10 μM), Leukemia; assay type: cell-based; conditions: Homo sapiens, K562; 10 μM; K-562, Leukemia; read-out: Growth percent rate
[4] = test system: MOLT-4; assay: NCI60 one-dose screen (10 μM), Leukemia; assay type: cell-based, human; conditions: Homo sapiens; 10 μM; MOLT-4, Leukemia; read-out: Growth percent rate
[5] = test system: RPMI-8226; assay: NCI60 one-dose screen (10 μM), Leukemia; assay type: cell-based; conditions: Homo sapiens; 10 μM; RPMI-8226, Leukemia; read-out: Growth percent rate
[6] = test system: A549/ATCC; assay: NCI60 one-dose screen (10 μM), Non-small Cell Lung Cancer; assay type: cell-based; conditions: Homo sapiens; 10 μM; A549/ATCC, Non-small Cell Lung Cancer; read-out: Growth percent rate
[7] = test system: HOP-62; assay: as above; assay type: cell-based; conditions: Homo sapiens; 10 μM; HOP-62, Non-small Cell Lung Cancer; read-out: Growth percent rate
[8] = test system: NCI-H322M; assay: as above; assay type: cell-based; conditions: Homo sapiens, 10 μM, Non-small Cell Lung Cancer, read-out: Growth percent rate
[9] = test system: NCI-H460; assay: as above; assay type: cell-based; conditions: Homo sapiens; 10 μM; NCI-H460, Non-small Cell Lung Cancer; read-out: Growth percent rate
[10] = test system: NCI-H522; assay: as above; assay type: cell-based; conditions: Homo sapiens; 10 μM; NCI-H522, Non-small Cell Lung Cancer; read-out: Growth percent rate
[11] = test system: COLO 205; assay: NCI60 one-dose screen (10 μM), Colon Cancer; assay type: cell-based, human; conditions: Homo sapiens; 10 μM; COLO 205, Colon Cancer; read-out: Growth percent rate
[12] = test system: HCT-116; assay: NCI60 one-dose screen (10 μM), Colon Cancer; assay type: cell-based; conditions: Homo sapiens; 10 μM; HCT-116, Colon Cancer; read-out: Growth percent rate
[13] = test system: HCT-15; assay: NCI60 one-dose screen (10 μM), Colon Cancer; assay type: cell-based; conditions: Homo sapiens; 10 μM; HCT-15, Colon Cancer; read-out: Growth percent rate
[14] = test system: HT29; assay: NCI60 one-dose screen (10 μM), Colon Cancer; assay type: cell-based; conditions: Homo sapiens, HT-29; 10 μM; HT29, Colon Cancer; read-out: Growth percent rate
[15] = test system: KM12; assay: NCI60 one-dose screen (10 μM), Colon Cancer; assay type: cell-based, human; conditions: Homo sapiens; 10 μM; KM12, Colon Cancer; read-out: Growth percent rate
[16] = test system: SW-620; assay: NCI60 one-dose screen (10 μM), Colon Cancer; assay type: cell-based; conditions: Homo sapiens; 10 μM; SW-620, Colon Cancer; read-out: Growth percent rate
[17] = test system: SF-268; assay: NCI60 one-dose screen (10 μM), CNS Cancer; assay type: cell-based; conditions: Homo sapiens; 10 μM; SF-268, CNS Cancer; read-out: Growth percent rate
[18] = test system: SF-295; assay: NCI60 one-dose screen (10 μM), CNS Cancer; assay type: cell-based; conditions: Homo sapiens; 10 μM; SF-295, CNS Cancer; read-out: Growth percent rate
[19] = test system: SF-539; assay: NCI60 one-dose screen (10 μM), CNS Cancer; assay type: cell-based, human; conditions: Homo sapiens; 10 μM; SF-539, CNS Cancer; read-out: Growth percent rate
[20] = test system: SNB-19; assay: NCI60 one-dose screen (10 μM), CNS Cancer; assay type: cell-based; conditions: Homo sapiens; 10 μM; SNB-19, CNS Cancer; read-out: Growth percent rate
[21] = test system: SNB-75; assay: NCI60 one-dose screen (10 μM), CNS Cancer; assay type: cell-based, human; conditions: Homo sapiens; 10 μM; SNB-75, CNS Cancer; read-out: Growth percent rate
[22] = test system: U251; assay: NCI60 one-dose screen (10 μM), CNS Cancer; assay type: cell-based; conditions: Homo sapiens, U-251; 10 μM; U251, CNS Cancer; read-out: Growth percent rate
[23] = test system: LOX IMVI; assay: NCI60 one-dose screen (10 μM), Melanoma; assay type: cell-based, human; conditions: Homo sapiens; 10 μM; LOX IMVI, Melanoma; read-out: Growth percent rate
[24] = test system: MALME-3M; assay: NCI60 one-dose screen (10 μM), Melanoma; assay type: cell-based; conditions: Homo sapiens; 10 μM; MALME-3M, Melanoma; read-out: Growth percent rate
[25] = test system: M14; assay: NCI60 one-dose screen (10 μM), Melanoma; assay type: cell-based; conditions: Homo sapiens; 10 μM; M14, Melanoma; read-out: Growth percent rate
[26] = test system: SK-MEL-2; assay: NCI60 one-dose screen (10 μM), Melanoma; assay type: cell-based; conditions: Homo sapiens; 10 μM; SK-MEL-2, Melanoma; read-out: Growth percent rate
[27] = test system: SK-MEL-28; assay: NCI60 one-dose screen (10 μM), Melanoma; assay type: cell-based; conditions: Homo sapiens; 10 μM; SK-MEL-28, Melanoma; read-out: Growth percent rate
[28] = test system: SK-MEL-5; assay: NCI60 one-dose screen (10 μM), Melanoma; assay type: cell-based, human; conditions: Homo sapiens; 10 μM; SK-MEL-5, Melanoma; read-out: Growth percent rate
[29] = test system: UACC-257; assay: NCI60 one-dose screen (10 μM), Melanoma; assay type: cell-based; conditions: Homo sapiens; 10 μM; UACC-257, Melanoma; read-out: Growth percent rate
[30] = test system: IGROV1; assay: NCI60 one-dose screen (10 μM), Ovarian Cancer; assay type: cell-based; conditions: Homo sapiens, IGROV-1; 10 μM; IGROV1, Ovarian Cancer; read-out: Growth percent rate
[31] = test system: OVCAR-3; assay: NCI60 one-dose screen (10 μM), Ovarian Cancer; assay type: cell-based; conditions: Homo sapiens; 10 μM; OVCAR-3, Ovarian Cancer; read-out: Growth percent rate
[32] = test system: OVCAR-8; assay: NCI60 one-dose screen (10 μM), Ovarian Cancer; assay type: cell-based; conditions: Homo sapiens; 10 μM; OVCAR-8, Ovarian Cancer; read-out: Growth percent rate
[33] = test system: 786–0; assay: NCI60 one-dose screen (10 μM), Renal Cancer; assay type: cell-based; conditions: Homo sapiens; 10 μM; 786-0, Renal Cancer; read-out: Growth percent rate
[34] = test system: A498; assay: NCI60 one-dose screen (10 μM), Renal Cancer; assay type: cell-based; conditions: Homo sapiens; 10 μM; A498, Renal Cancer; read-out: Growth percent rate
[35] = test system: ACHN; assay: NCI60 one-dose screen (10 μM), Renal Cancer; assay type: cell-based; conditions: Homo sapiens, 10 μM, Renal Cancer, read-out: Growth percent rate
[36] = test system: RXF 393; assay: NCI60 one-dose screen (10 μM), Renal Cancer; assay type: cell-based, human; conditions: Homo sapiens; 10 μM; RXF 393, Renal Cancer; read-out: Growth percent rate
[37] = test system: SN12C; assay: NCI60 one-dose screen (10 μM), Renal Cancer; assay type: cell-based; conditions: Homo sapiens, 10 μM, Renal Cancer, read-out: Growth percent rate
[38] = test system: TK-10; assay: NCI60 one-dose screen (10 μM), Renal Cancer; assay type: cell-based; conditions: Homo sapiens; 10 μM; TK-10, Renal Cancer; read-out: Growth percent rate
[39] = test system: DU-145; assay: NCI60 one-dose screen (10 μM), Prostate Cancer; assay type: cell-based; conditions: Homo sapiens; 10 μM; DU-145, Prostate Cancer; read-out: Growth percent rate
[40] = test system: MCF7; assay: NCI60 one-dose screen (10 μM), Breast Cancer; assay type: cell-based; conditions: Homo sapiens; 10 μM; MCF7, Breast Cancer; read-out: Growth percent rate
[41] = test system: HS 578T; assay: NCI60 one-dose screen (10 μM), Breast Cancer; assay type: cell-based; conditions: Homo sapiens; 10 μM; HS 578T, Breast Cancer; read-out: Growth percent rate
[42] = test system: 60 human tumor cell lines (NCI60); assay: NCI60 one-dose screen (10 μM), whole panel; assay type: cell-based; conditions: for activity at 10 µM: mean over 60 human cancer cell lines, read-out: Growth percent rate, Mean

CCC12C=CCN3CCC4(c5cc(NC(=O)CN6CCN(C(=O)c7ccco7)CC6)c(OC)cc5N(C)C4C(O)(C(=O)OC)C1OC(C)=O)C32 (stereo not shown) [Compound 21]
activity at 10 µM [1]: 103%
activity at 10 µM [2]: 114%
activity at 10 µM [3]: 108%
activity at 10 µM [4]: 101%
activity at 10 µM [5]: 103%
activity at 10 µM [6]: 101%
activity at 10 µM [7]: 100%
activity at 10 µM [8]: 110%
activity at 10 µM [9]: 108%
activity at 10 µM [10]: 98.2%
activity at 10 µM [11]: 120%
activity at 10 µM [12]: 108%
activity at 10 µM [13]: 107%
activity at 10 µM [14]: 109%
activity at 10 µM [15]: 99.8%
activity at 10 µM [16]: 113%
activity at 10 µM [17]: 106%
activity at 10 µM [18]: 110%
activity at 10 µM [19]: 114%
activity at 10 µM [20]: 96.2%
activity at 10 µM [21]: 91%
activity at 10 µM [22]: 118%
activity at 10 µM [23]: 98.5%
activity at 10 µM [24]: 104%
activity at 10 µM [25]: 110%
activity at 10 µM [26]: 111%
activity at 10 µM [27]: 126%
activity at 10 µM [28]: 105%
activity at 10 µM [29]: 106%
activity at 10 µM [30]: 127%
activity at 10 µM [31]: 118%
activity at 10 µM [32]: 101%
activity at 10 µM [33]: 104%
activity at 10 µM [34]: 104%
activity at 10 µM [35]: 109%
activity at 10 µM [36]: 133%
activity at 10 µM [37]: 107%
activity at 10 µM [38]: 109%
activity at 10 µM [39]: 110%
activity at 10 µM [40]: 98.3%
activity at 10 µM [41]: 121%
activity at 10 µM [42]: 108%

CCC12C=CCN3CCC4(c5cc(NC(=O)CN6CCN(C(c7ccc(F)cc7)c7ccc(F)cc7)CC6)c(OC)cc5N(C)C4C(O)(C(=O)OC)C1OC(C)=O)C32 (stereo not shown) [Compound 20]
activity at 10 µM [1]: -18.9%
activity at 10 µM [2]: -10.8%
activity at 10 µM [3]: 17%
activity at 10 µM [4]: 1.17%
activity at 10 µM [5]: -2.68%
activity at 10 µM [6]: 31%
activity at 10 µM [7]: 60.3%
activity at 10 µM [8]: 42.8%
activity at 10 µM [9]: 17.3%
activity at 10 µM [10]: 11%
activity at 10 µM [11]: -60.5%
activity at 10 µM [12]: 27.9%
activity at 10 µM [13]: 18.3%
activity at 10 µM [14]: -40.8%
activity at 10 µM [15]: 20.2%
activity at 10 µM [16]: 34.2%
activity at 10 µM [17]: 28.1%
activity at 10 µM [18]: 13.8%
activity at 10 µM [19]: -61.1%
activity at 10 µM [20]: 21.5%
activity at 10 µM [21]: -60.5%
activity at 10 µM [22]: 31.7%
activity at 10 µM [23]: -61%
activity at 10 µM [24]: 0%
activity at 10 µM [25]: 49.7%
activity at 10 µM [26]: -34.7%
activity at 10 µM [27]: 51.2%
activity at 10 µM [28]: -76.2%
activity at 10 µM [29]: 37.9%
activity at 10 µM [30]: 44.9%
activity at 10 µM [31]: 36.5%
activity at 10 µM [32]: 45.6%
activity at 10 µM [33]: 34%
activity at 10 µM [34]: 35.6%
activity at 10 µM [35]: 11.4%
activity at 10 µM [36]: -44%
activity at 10 µM [37]: 26.9%
activity at 10 µM [38]: 37.6%
activity at 10 µM [39]: 37.1%
activity at 10 µM [40]: 5.47%
activity at 10 µM [41]: 15.5%
antiproliferative effect (in words) ([42]; 10 μM one-dose, NCI60): moderate antiproliferative activity on some colon, CNS, and melanoma cell lines
activity at 10 µM [42]: 12.2%
